# In patent US20180155757A1, “IDENTIFICATION OF BACTERIA THAT ARE RESISTANT TO CARBAPENEMS BY MEMBRANE IMPERVIOUSNESS” (BIOMÉRIEUX, priority 2015, published 2018):
# Where two headings read alike, the source gives them in different places.
# Key:
# Experiment in all cases: Etest MIC of indicator carbapenems on MH II agar without/with PMBN
# Assay type in all cases: cell-based
# [1] = system: E. cloacae 1008074 (VIM producer)
# Description: (§1) The determinations of antibiotic MIC were carried out on solid culture media with the Etest® method. To do this, Etest® strips (bioMérieux, France) were used: • Etest® Imipenem IM 32, and • Etest® Ertapenem ETP 32, and also solid culture media, differing from one another by virtue of their non-inhibitory concentrations of PMBN.
# (§2) These solid culture media are prepared in Petri dishes (0=145 mm; V=50 ml) on a base of MH II Agar (Becton Dickinson®, United States), more or less supplemented with PMBN. The PMBN concentrations range from 0 up to concentrations equivalent to one fifth of the MIC of PMBN (⅕ MICPMBN).
# (§3) Using a swab and the Retro C80™ rota-plater (bioMérieux, France), the culture media were inoculated with the bacteria, originating from an inoculum of 0.5 McFarland, prepared in 0.85% NaCl solution from colonies subcultured the day before on MH II agar.
# (§4) The various Etest® strips are then deposited on the surface of the culture media. After 16 to 20 hours of incubation at 35° C., the MICS were read.
# (§5) By way of indicator carbapenems according to the invention, in addition to imipenem (IM) and ertapenem (ETP), meropenem (MP) was also tested. Like the other two antibiotics, meropenem was used in the form of Etest® strips (Etest® Meropenem MP 32 from the company bioMérieux, France).
# (§6) The methods used to prepare the new culture media and to carry out the antibiotic-sensitivity tests are identical to those described above.
# [2] = system: E. cloacae 1008080 (IMP producer); conditions: in µg/mL
# Description: as §1, §2, §3, §4, §5, §6
# [3] = system: E. cloacae 1109137 (OXA-48 producer)
# Description: as §1, §2, §3, §4, §5, §6
# [4] = system: E. cloacae 1204051 (membrane impermeability)
# Description: as §1, §2, §3, §4, §5, §6
# [5] = system: E. cloacae 1204052 (membrane impermeability)
# Description: as §1, §2, §3, §4, §5, §6
# [6] = system: E. cloacae 1204053 (membrane impermeability)
# Description: as §1, §2, §3, §4, §5, §6
# [7] = system: E. cloacae 1204056 (membrane impermeability)
# Description: as §1, §2, §3, §4, §5, §6
# [8] = system: E. cloacae 1204058 (membrane impermeability); conditions: in µg/mL
# Description: as §1, §2, §3, §4, §5, §6
# [9] = system: E. coli SAB 100 (porin−); conditions: Escherichia coli
# Description: as §1, §2, §3, §4, §5, §6
# [10] = system: E. coli SAB 108 (porin−); conditions: Escherichia coli
# Description: as §1, §2, §3, §4, §5, §6
# [11] = system: Enterobacter aerogenes EA 27 (porin−); conditions: Klebsiella aerogenes, E. aerogenes EA 27 (porin−), read-out: MIC
# Description: as §1, §2, §3, §4, §5, §6
# [12] = system: Enterobacter aerogenes EA 5 (porin−); conditions: Klebsiella aerogenes, E. aerogenes EA 5 (porin−)
# Description: as §1, §2, §3, §4, §5, §6
# [13] = system: K. pneumoniae 1012142 (KPC-2 producer)
# Description: as §1, §2, §3, §4, §5, §6
# [14] = system: K. pneumoniae 1103183 (NDM producer)
# Description: as §1, §2, §3, §4, §5, §6
# [15] = system: K. pneumoniae 1108003 (KPC-3 producer)
# Description: as §1, §2, §3, §4, §5, §6
# [16] = system: K. pneumoniae 1204035 (membrane impermeability); conditions: in µg/mL
# Description: as §1, §2, §3, §4, §5, §6
# [17] = system: K. pneumoniae 1204036 (membrane impermeability)
# Description: as §1, §2, §3, §4, §5, §6
# [18] = system: K. pneumoniae 1204039 (membrane impermeability)
# Description: as §1, §2, §3, §4, §5, §6
# [19] = system: K. pneumoniae KP 63 (porin−); conditions: Klebsiella pneumoniae
# Description: as §1, §2, §3, §4, §5, §6
compound,measurement,setting,value
"C[C@@H](O)[C@H]1C(=O)N2C(C(=O)O)=C(S[C@@H]3CN[C@H](C(=O)N(C)C)C3)[C@H](C)[C@H]12 [MP, meropenem]",MIC,"[1]; [PMBN] 0, Table 4a",0.38 µg/mL
same,MIC,"[1]; [PMBN] 100, Table 4a",1.5 µg/mL
same,MIC,"[1]; [PMBN] 200, Table 4a",1 µg/mL
same,MIC,"[1]; [PMBN] 300, Table 4a",1.5 µg/mL
same,MIC,"[2]; [PMBN] 0, Table 4a",2
same,MIC,"[2]; [PMBN] 100, Table 4a",8
same,MIC,"[2]; [PMBN] 200, Table 4a",6
same,MIC,"[2]; [PMBN] 300, Table 4a",4-6
same,MIC,"[3]; [PMBN] 0, Table 4a",3 µg/mL
same,MIC,"[3]; [PMBN] 100, Table 4a",3 µg/mL
same,MIC,"[3]; [PMBN] 200, Table 4a",1.5 µg/mL
same,MIC,"[3]; [PMBN] 300, Table 4a",2 µg/mL
same,MIC,"[4]; [PMBN] 0, Table 4a",4 µg/mL
same,MIC,"[4]; [PMBN] 100, Table 4a",2 µg/mL
same,MIC,"[4]; [PMBN] 200, Table 4a",0.25 µg/mL
same,MIC,"[4]; [PMBN] 300, Table 4a",0.25 µg/mL
same,MIC,"[5]; [PMBN] 0, Table 4a",6 µg/mL
same,MIC,"[5]; [PMBN] 100, Table 4a",0.75 µg/mL
same,MIC,"[5]; [PMBN] 200, Table 4a",1.5 µg/mL
same,MIC,"[5]; [PMBN] 300, Table 4a",0.5 µg/mL
same,MIC,"[6]; [PMBN] 0, Table 4a",4 µg/mL
same,MIC,"[6]; [PMBN] 100, Table 4a",2 µg/mL
same,MIC,"[6]; [PMBN] 200, Table 4a",2 µg/mL
same,MIC,"[6]; [PMBN] 300, Table 4a",1.5 µg/mL
same,MIC,"[7]; [PMBN] 0, Table 4a",12 µg/mL
same,MIC,"[7]; [PMBN] 100, Table 4a",2 µg/mL
same,MIC,"[7]; [PMBN] 200, Table 4a",1 µg/mL
same,MIC,"[7]; [PMBN] 300, Table 4a",0.75 µg/mL
same,MIC,"[8]; [PMBN] 0, Table 4a",>32
same,MIC,"[8]; [PMBN] 100, Table 4a",2
same,MIC,"[8]; [PMBN] 200, Table 4a",0.75
same,MIC,"[8]; [PMBN] 300, Table 4a",0.25
same,MIC,[9]; [PMBN] 0,0.125 µg/mL
same,MIC,[9]; [PMBN] 50 μg/ml,0.094 µg/mL
same,MIC,[9]; [PMBN] 100 μg/ml,0.047 µg/mL
same,MIC,[9]; [PMBN] 150 μg/ml,0.032 µg/mL
same,MIC,[9]; [PMBN] 200 μg/ml,0.032 µg/mL
same,MIC,[10]; [PMBN] 0,2 µg/mL
same,MIC,[10]; [PMBN] 50 μg/ml,0.125 µg/mL
same,MIC,[10]; [PMBN] 100 μg/ml,0.125 µg/mL
same,MIC,[10]; [PMBN] 150 μg/ml,0.094 µg/mL
same,MIC,[10]; [PMBN] 200 μg/ml,0.094 µg/mL
same,MIC,"[11]; [PMBN] 0, Table 4",4 µg/mL
same,MIC,[11]; [PMBN] 50 μg/ml,0.75 µg/mL
same,MIC,[11]; [PMBN] 100 μg/ml,0.5 µg/mL
same,MIC,[11]; [PMBN] 150 μg/ml,0.19 µg/mL
same,MIC,[11]; [PMBN] 200 μg/ml,0.094 µg/mL
same,MIC,"[12]; [PMBN] 0, Table 4",3 µg/mL
same,MIC,[12]; [PMBN] 50 μg/ml,2 µg/mL
same,MIC,[12]; [PMBN] 100 μg/ml,1.5 µg/mL
same,MIC,[12]; [PMBN] 150 μg/ml,0.75 µg/mL
same,MIC,[12]; [PMBN] 200 μg/ml,0.75 µg/mL
same,MIC,"[13]; [PMBN] 0, Table 4a",> 32 µg/mL
same,MIC,"[13]; [PMBN] 100, Table 4a",> 32 µg/mL
same,MIC,"[13]; [PMBN] 200, Table 4a",> 32 µg/mL
same,MIC,"[13]; [PMBN] 300, Table 4a",> 32 µg/mL
same,MIC,"[14]; [PMBN] 0, Table 4a",> 32 µg/mL
same,MIC,"[14]; [PMBN] 100, Table 4a",> 32 µg/mL
same,MIC,"[14]; [PMBN] 200, Table 4a",24 µg/mL
same,MIC,"[14]; [PMBN] 300, Table 4a",> 32 µg/mL
same,MIC,"[15]; [PMBN] 0, Table 4a",6 µg/mL
same,MIC,"[15]; [PMBN] 100, Table 4a",> 32 µg/mL
same,MIC,"[15]; [PMBN] 200, Table 4a",> 32 µg/mL
same,MIC,"[15]; [PMBN] 300, Table 4a",4 µg/mL
same,MIC,"[16]; [PMBN] 0, Table 4a",8-12
same,MIC,"[16]; [PMBN] 100, Table 4a",2
same,MIC,"[16]; [PMBN] 200, Table 4a",1.5
same,MIC,"[16]; [PMBN] 300, Table 4a",1.5
same,MIC,"[17]; [PMBN] 0, Table 4a",32 µg/mL
same,MIC,"[17]; [PMBN] 100, Table 4a",16 µg/mL
same,MIC,"[17]; [PMBN] 200, Table 4a",6 µg/mL
same,MIC,"[17]; [PMBN] 300, Table 4a",4 µg/mL
same,MIC,"[18]; [PMBN] 0, Table 4a",0.75 µg/mL
same,MIC,"[18]; [PMBN] 100, Table 4a",0.5 µg/mL
same,MIC,"[18]; [PMBN] 200, Table 4a",0.38 µg/mL
same,MIC,"[18]; [PMBN] 300, Table 4a",0.38 µg/mL
same,MIC,[19]; [PMBN] 0,0.25 µg/mL
same,MIC,[19]; [PMBN] 50 μg/ml,0.25 µg/mL
same,MIC,[19]; [PMBN] 100 μg/ml,0.094 µg/mL
same,MIC,[19]; [PMBN] 150 μg/ml,0.064 µg/mL
same,MIC,[19]; [PMBN] 200 μg/ml,0.023 µg/mL
